A short description of the data set: Solubility of cis-FTC Ester in various solvent systems. In kind it is physicochemical. The following applies: 100% ethyl acetate, 20° C. As for the experimental part: Therefore, the solubility of the FTC ester in several solvent systems was determined.

The structures appear in SMILES notation.

Compound `CCCC(=O)OC[C@@H]1O[C@H](n2cc(F)c(N)nc2=O)CS1` (relative stereo) [cis-FTC Ester, cis-{5-(4-amino-5-fluoro-2-oxo-1(2H)-pyrimidinyl)-1,3-oxathiolan-2-yl}methyl butanoate] displayed a Solubility of 3.03%??.

These data come from US6752929B1, “Methods of separating FTC isomers and derivatives thereof” (Johnson Matthey Pharmaceutical Materials, Inc., priority 1999, dated 2004).
